# Results taken from patent publication US5624894A, “Brain-enhanced delivery of neuroactive peptides by sequential metabolism” (University of Florida, priority 1995, dated 1997).
# Where “and” joins values, the source holds several entries; their conditions need not be identical. Equal values may be shown once. Square brackets hold non-standard residues; d marks the D form. Ends that are not written are not given here. Peptide text beside a SMILES is read from it. * marks the point of attachment. O(cholesteryl) = CC(C)CCC[C@@H](C)[C@H]1CC[C@H]2[C@@H]3CC=C4C[C@@H](O*)CC[C@]4(C)[C@H]3CC[C@]12C; Nicotinoyl(1-Me-1,4-dihydro) = CN1C=CCC(C(=O)*)=C1; pGlu = O=C1CC[C@@H](C(=O)O)N1; X1 = C[n+]1cccc(C(=O)*)c1
# How the values were obtained:
# Swiss Webster mice = experiment: Methohexital (barbiturate)-induced sleeping time in mice after i.v. injection; assay type: in vivo; conditions: for methohexital induced sleeping time, individual animals / methohexital induced sleeping time, mean: methohexital 90 mg/kg i.p. 10 min later; for methohexital induced sleeping time, individual animals / methohexital induced sleeping time, mean / No. of Death / behavior / symptoms of animals after i.v. administration: mice
# From the text: Two representative chemical delivery systems (CDS's) of the invention for the TRH analog [Leu^2 ]-TRH, i.e., compound (8) of Scheme I/EXAMPLE 8, which has an alanine spacer, and compound (12) of Scheme II/Example 12, which has an alanine-alanine spacer, were studied for their effects on the barbiturate-induced sleeping time in mice. TRH is known to antagonize the reduction in cholinergic activity induced by barbiturates. Thus, the activational effects of the CDS's for TRH analogs on cholinergic neurons can be measured by quantitating the antagonism of pentobarbital-induced sleeping and barbiturate-induced reduction in cholinergic neuronal activity.
# Swiss Webster mice weighing 30±2 g were used. The compounds were dissolved in a vehicle consisting of DMSO, ethanol and 50% (w/w) 2-hydroxypropyl-β-cyclodextrin at a ratio of 1:2:1 (15 mg/ml). CDS's at a dose of 30 mg/kg were injected in the animals through the tail vein. Vehicle only and an equimolar dose of TRH and [Leu^2 ]-TRH, 10 mg/kg, were also administered to compare CNS activities. Ten minutes after i.v. injection of the compound, each animal received an intraperitoneal injection of sodium methohexital solution (45 mg/ml) at a dose of 90 mg/kg. The sleeping time was recorded as the time elapsed from the onset of loss of the […] until the reflex was regained. Each compound and the vehicle control were tested on 5-11 animals. The statistical analysis was performed using the Student's t test.
# Sprague-Dawley rats = experiment: Rat tail flick test (analgesia) after i.v. administration; assay type: in vivo; design: Area under the latency change vs. time curve, AUC0-240 min: unit not given here; conditions: for Tail flick latency period / Maximum tail flick latency: cutoff 60 s; for Tail flick latency period / Maximum tail flick latency / Area under the latency change vs. time curve, AUC0-240 min: mean ± S.E.; for Number of Animals with maximum tail flick latency >60 seconds: cutoff latency 60 seconds
# Description: Sprague-Dawley rats weighing 200-250 g were used. Drugs were dissolved in the vehicle consisting of DMSO, ethanol and 50% (w/w) 2-hydroxypropyl-β-cyclodextrin at a ratio of 1:2:1. A-CDS at a dose of 5 or 10 mg/2 ml/kg was injected in the animals through the tail vein. Vehicle only, or an equimolar dose (5 mg/kg) of DADLE (equimolar to 10 mg/kg of A-CDS) was also administered to compare the pharmacological activities. Tail flick latency, an index of spinal cord mediated analgesia, was measured before (control) and at 5 minutes, 15 minutes, 30 minutes, 1 hour, 2 hours, 3 hours, 4 hours, 5 hours and 6 hours after drug administration. The instrument used was a model 33 tail flick analgesia meter (lite, Inc., Landing, N.J.) set with the beam dial at 90 and the sensitivity at 8. Time between presentation of a focused beam of light and the reflexive removal of the tail from the stimulus was defined as the tail flick latency period, and the tail flick latency difference between each time point and control was defined as the change in tail flick latency. In the absence of response, a cut-off period of 1 minute was used. Each drug at each dose was tested in ten animals. Results are presented in Tables 5-8 below and in FIGS. 3-5.
# Another representative chemical delivery system (AA-CDS) of the invention for the enkephalin analog DADLE, namely compound (69) of EXAMPLE 69, which has an alanine-alanine spacer, was studied in the same rat tail flick test procedure described above to determine its analgesic effects compared to DADLE itself. AA-CDS was tested at a dose of 10 mg/2 ml/kg, which is equimolar to 5 mg/kg of DADLE, and compared with vehicle and 5mg/kg of DADLE exactly as described above. Each dose was tested in ten animals.
# [1] = ACTH4-9 analog, behavioral effects; cited from earlier work
# [2] = tested on: opioid ([^3 H]diprenorphine-based competitive assay); experiment: [3H]diprenorphine-based competitive assay; assay type: binding; conditions: read-out: 50 percent inhibitory concentration (IC50)
# From the text: The test procedure is described hereinbelow following the EXAMPLES, and the results are shown in Tables 5-8 and FIGS. 3-5 for (A) where [SEQ. ID NO. 27] YAGFL is [D-Ala^2 ]-[D-Leu]-enkephalin; i.e., Compound (64) in the EXAMPLES. The targetor-peptide conjugates (C), such as compound (70), are weak opioids. The 50 percent inhibitory concentration (IC50) measured with [^3 H]diprenorphine-based competitive assay is about 10^-7 M, an order of magnitude less than the IC50 of about 10^-8 M for the enkephalin analogs. At the measured 500 to 700 pmol/g tissue concentration, even these weak opioids exert significant analgesic activity. The enkephalin analog may also be released slowly from the targetor-peptide conjugate in vivo, and contribute to the CNS activity. No analgesia was observed after the intravenous administration of the unmanipulated enkephalins, which are membrane-impermeable and unprotected toward various peptide-degrading enzymes, nor after the injection of the partially conjugated (either with the targetor or with cholesteryl) peptides. Modification of the spacer (S) function may allow for the peptidolytic release of the parent peptide from the conjugate at a desired rate, depending on the therapeutic objective.
# [3] = Table 2 experiment, 10 mg/kg i.v.
# [4] = Table 1 experiment, 10 mg/kg i.v. (equimolar)
# [5] = Table 1 experiment, CDS 30 mg/kg i.v.
molecule,measurement,setting,value
"NC(=O)[C@@H]1CCCN1C(=O)[C@H](Cc1cnc[nH]1)NC(=O)[C@@H]1CCC(=O)N1 [TRH, PyroGlu-His-Pro-NH2]","methohexital induced sleeping time, individual animals",Swiss Webster mice; [3],20.47 min and 23.90 min and 15.00 min and 12.90 min and 11.17 min and 11.77 min and 40.82 min
same,"methohexital induced sleeping time, mean",Swiss Webster mice; [3],19.43 min
same,No. of Death,Swiss Webster mice; [3],2
same,behavior / symptoms of animals after i.v. administration,Swiss Webster mice,"tremor, tail-elevation and piloerection"
"CC(C)C[C@H](NC(=O)[C@@H]1CCC(=O)N1)C(=O)N1CCC[C@H]1C(N)=O [[Leu^2]-TRH, PyroGlu-Leu-Pro-NH2] ([pGlu]-Leu-Pro-NH2)","methohexital induced sleeping time, individual animals",Swiss Webster mice; [4],33.95 min and 37.37 min and 28.22 min and 15.03 min and 33.63 min and 20.90 min and 27.97 min and 36.80 min
same,"methohexital induced sleeping time, mean",Swiss Webster mice; [4],29.23 min
same,"methohexital induced sleeping time, individual animals",Swiss Webster mice; [3],15.18 min and 11.95 min and 12.47 min and 11.17 min and 8.53 min and 8.02 min
same,"methohexital induced sleeping time, mean",Swiss Webster mice; [3],11.22 min
same,effect on barbiturate-induced sleeping time (in words),"Swiss Webster mice; first experiment (Table 1), compared to control or [Leu2]-TRH",no significant difference between the control and [Leu^2 ]-TRH
same,behavior / symptoms of animals after i.v. administration,Swiss Webster mice,a few animals (1-2) showed the same symptoms as in the case of TRH
same,effect on sleeping time (in words),"Swiss Webster mice; second experiment (Table 2), compared to TRH or vehicle control",significantly reduced
"CC(C)CCC[C@@H](C)[C@H]1CC[C@H]2[C@@H]3CC=C4C[C@@H](OC(=O)CNC(=O)[C@@H]5CCCN5C(=O)[C@H](CC(C)C)NC(=O)[C@H](CCC(N)=O)NC(=O)[C@H](C)NC(=O)[C@H](C)NC(=O)C5=CN(C)C=CC5)CC[C@]4(C)[C@H]3CC[C@]12C [Compound (12), 1,4-Dihydrotrigonellyl-Ala-Ala-Gln-Leu-Pro-Gly-Cholesteryl Ester] ({Nicotinoyl(1-Me-1,4-dihydro)}-AAQLPG-{O(cholesteryl)})","methohexital induced sleeping time, individual animals",Swiss Webster mice; [5],12.08 min and 17.18 min and 27.05 min and 10.07 min and 16.40 min and 19.00 min and 8.13 min and 15.38 min and 17.93 min and 9.45 min
same,"methohexital induced sleeping time, mean",Swiss Webster mice; [5],15.27 min
same,No. of Death,Swiss Webster mice; [5],1
"CC(C)CCC[C@@H](C)[C@H]1CC[C@H]2[C@@H]3CC=C4C[C@@H](OC(=O)CNC(=O)[C@@H]5CCCN5C(=O)[C@H](CC(C)C)NC(=O)[C@H](CCC(N)=O)NC(=O)[C@H](C)NC(=O)C5=CN(C)C=CC5)CC[C@]4(C)[C@H]3CC[C@]12C [Compound (8), 1.4-Dihydrotrigonellyl-Ala-Gln-Leu-Pro-Gly-Cholesteryl Ester] ({Nicotinoyl(1-Me-1,4-dihydro)}-AQLPG-{O(cholesteryl)})","methohexital induced sleeping time, individual animals",Swiss Webster mice; [5],18.23 min and 15.33 min and 11.90 min and 17.27 min and 46.07 min and 18.58 min and 15.73 min and 34.43 min and 16.15 min
same,"methohexital induced sleeping time, mean",Swiss Webster mice; [5],21.52 min
same,No. of Death,Swiss Webster mice; [5],2
"CC(C)CCC[C@@H](C)[C@H]1CC[C@H]2[C@@H]3CC=C4C[C@@H](OC(=O)[C@@H](CC(C)C)NC(=O)[C@H](Cc5ccccc5)NC(=O)CNC(=O)[C@@H](C)NC(=O)[C@H](Cc5ccc(O)cc5)NC(=O)[C@H](C)NC(=O)C5=CN(C)C=CC5)CC[C@]4(C)[C@H]3CC[C@]12C [Compound (64), 1,4-Dihydrotrigonellyl-Ala-Tyr-D-Ala-Gly-Phe-D-Leu-Cholesteryl Ester] ({Nicotinoyl(1-Me-1,4-dihydro)}-AY[dA]GF[dL]-{O(cholesteryl)})",Number of Animals with maximum tail flick latency 20-40 seconds,Sprague-Dawley rats; 5 mg/kg i.v.,2
same,Number of Animals with maximum tail flick latency 40-60 seconds,Sprague-Dawley rats; 5 mg/kg i.v.,2
same,Number of Animals with maximum tail flick latency <20 seconds,Sprague-Dawley rats; 5 mg/kg i.v.,4
same,Tail flick latency period,"Sprague-Dawley rats; 5 mg/kg i.v., 0 min (prior to drug administration)",7.24 ± 0.58 s
same,Tail flick latency period,"Sprague-Dawley rats; 5 mg/kg i.v., 5 min",25.95 ± 5.64 s
same,Tail flick latency period,"Sprague-Dawley rats; 5 mg/kg i.v., 15 min",20.63 ± 5.40 s
same,Tail flick latency period,"Sprague-Dawley rats; 5 mg/kg i.v., 30 min",14.22 ± 2.22 s
same,Tail flick latency period,"Sprague-Dawley rats; 5 mg/kg i.v., 60 min",13.00 ± 1.97 s
same,Tail flick latency period,"Sprague-Dawley rats; 5 mg/kg i.v., 120 min",18.37 ± 5.10 s
same,Tail flick latency period,"Sprague-Dawley rats; 5 mg/kg i.v., 180 min",16.63 ± 2.02 s
same,Tail flick latency period,"Sprague-Dawley rats; 5 mg/kg i.v., 240 min",20.28 ± 5.58 s
same,Tail flick latency period,"Sprague-Dawley rats; 5 mg/kg i.v., 300 min",17.84 ± 3.42 s
same,Maximum tail flick latency,Sprague-Dawley rats; 5 mg/kg i.v.,33.05 ± 5.99 s
same,Number of Animals with maximum tail flick latency >60 seconds,Sprague-Dawley rats; 5 mg/kg i.v.,2
same,"Area under the latency change vs. time curve, AUC0-240 min",Sprague-Dawley rats; 5 mg/kg i.v.,2528.70 ± 663.78
same,Number of Animals with maximum tail flick latency 20-40 seconds,Sprague-Dawley rats; 10 mg/kg i.v.,1
same,Number of Animals with maximum tail flick latency 40-60 seconds,Sprague-Dawley rats; 10 mg/kg i.v.,3
same,Number of Animals with maximum tail flick latency <20 seconds,Sprague-Dawley rats; 10 mg/kg i.v.,0
same,Tail flick latency period,"Sprague-Dawley rats; 10 mg/kg i.v., 0 min (prior to drug administration)",9.21 ± 0.53 s
same,Tail flick latency period,"Sprague-Dawley rats; 10 mg/kg i.v., 5 min",49.67 ± 4.67 s
same,Tail flick latency period,"Sprague-Dawley rats; 10 mg/kg i.v., 15 min",40.71 ± 7.00 s
same,Tail flick latency period,"Sprague-Dawley rats; 10 mg/kg i.v., 30 min",36.03 ± 6.34 s
same,Tail flick latency period,"Sprague-Dawley rats; 10 mg/kg i.v., 60 min",32.59 ± 6.63 s
same,Tail flick latency period,"Sprague-Dawley rats; 10 mg/kg i.v., 120 min",26.28 ± 4.56 s
same,Tail flick latency period,"Sprague-Dawley rats; 10 mg/kg i.v., 180 min",28.50 ± 4.40 s
same,Tail flick latency period,"Sprague-Dawley rats; 10 mg/kg i.v., 240 min",28.30 ± 4.68 s
same,Tail flick latency period,"Sprague-Dawley rats; 10 mg/kg i.v., 300 min",30.15 ± 3.81 s
same,Maximum tail flick latency,Sprague-Dawley rats; 10 mg/kg i.v.,51.94 ± 3.83 s
same,Number of Animals with maximum tail flick latency >60 seconds,Sprague-Dawley rats; 10 mg/kg i.v.,6
same,"Area under the latency change vs. time curve, AUC0-240 min",Sprague-Dawley rats; 10 mg/kg i.v.,4897.80 ± 1011.63
same,analgesic effect in tail flick test (in words),"Sprague-Dawley rats; i.v., compared to control",significant and prolonged increase in the latency of the tail-flick response
"Org 2766: very active ACTH4-9 analog with oxidized methionine at 4, D-lysine at 8, phenylalanine at 9 (MEHF[dK]F; not fully specified (residue 1); printed as Met Glu His Phe Lys Phe)",potentiation,[1],1000 fold
"CC(C)C[C@@H](NC(=O)[C@H](Cc1ccccc1)NC(=O)CNC(=O)[C@@H](C)NC(=O)[C@H](Cc1ccc(O)cc1)NC(=O)[C@H](C)NC(=O)c1ccc[n+](C)c1)C(=O)O [(70), Trigonellyl-Ala-Tyr-D-Ala-Gly-Phe-D-Leu-OH Methylsulfate] (X1-AY[dA]GF[dL]-OH)",IC50,[2],~100 nM
